Reference: patent publication US4921850A, “3-propenylcephem derivative” (Eisai Co., Ltd., priority 1986, dated 1990)
≈ marks a conversion by molar mass, not a printed value. Where two headings read alike, the source gives them in different places.

Columns and labels:
Assay in all cases: Anti-bacterial activity (MIC), agar dilution
Format in all cases: cell-based
Kleb. pneumoniae EK-6 = details: Kleb. pneumoniae EK-6, agar dilution, about 10^6 CFU/ml, 18 hours, 37° C.
Summary of the method: (§1)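 MIC values (μg/ml) come from agar dilution: strains grown overnight in Mueller-Hinton broth, diluted to roughly 10^6 CFU/ml, spotted on Mueller-Hinton agar containing twofold serial antibiotic dilutions, and read after 18 hours at 37° C.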

Pseud. aeruginosa EP-01 = details: Pseud. aeruginosa EP-01, agar dilution, about 10^6 CFU/ml, 18 hours, 37° C.
Summary of the method: as §1

Ser. marcescens ES-75 = details: Ser. marcescens ES-75, agar dilution, about 10^6 CFU/ml, 18 hours, 37° C.
Summary of the method: as §1

Staph. aureus 209-P = details: Staph. aureus 209-P, agar dilution, about 10^6 CFU/ml, 18 hours, 37° C.
Summary of the method: as §1

[1] = system: Morganella morganii EP-14; details: about 10^6 CFU/ml, 37° C.
Summary of the method: as §1

Escher. coli NIHJ = details: Escher. coli NIHJ, agar dilution, about 10^6 CFU/ml, 18 hours, 37° C.
Summary of the method: as §1

[2] = Klebsiella pneumoniae, EK6, 18 h, read-out: MIC
[3] = Pseudomonas aeruginosa, EP01, 18 h, read-out: MIC
[4] = Serratia marcescens, ES75, 18 h, read-out: MIC
[5] = Staphylococcus aureus, 209P, 18 h, read-out: MIC
[6] = Morganella morganii, EP14, 18 h, read-out: MIC
[7] = Escherichia coli, 18 h, read-out: MIC

Compound	MIC (Kleb. pneumoniae EK-6; [2]) [mg/L]	MIC (Pseud. aeruginosa EP-01; [3]) [mg/L]	MIC (Ser. marcescens ES-75; [4]) [mg/L]	MIC (Staph. aureus 209-P; [5]) [mg/L]	MIC [1, 6] [mg/L]	MIC (Escher. coli NIHJ; [7]) [mg/L]	MIC (Kleb. pneumoniae EK-6) [mg/L]	MIC (Pseud. aeruginosa EP-01) [mg/L]	MIC (Ser. marcescens ES-75) [mg/L]	MIC (Staph. aureus 209-P) [mg/L]	MIC ([1]; 18 hours) [mg/L]	MIC (Escher. coli NIHJ) [mg/L]
C[N+]1(CC=CC2=C(C(=O)[O-])N3C(=O)C(NC(=O)C(=NOCF)c4nsc(N)n4)C3SC2)CC(O)CC1CO (stereo not drawn) [Example 89-2]	–	–	–	–	–	–	≤ 0.025	0.8 (≈ 1.4 µM)	≤ 0.025	0.2 (≈ 0.35 µM)	≤ 0.025	≤ 0.025
C[N+](C)(C/C=C/C1=C(C(=O)[O-])N2C(=O)[C@@H](NC(=O)/C(=N\OCF)c3nsc(N)n3)[C@H]2SC1)CCC(N)=O [Example 93]	≤ 0.025	0.8 (≈ 1.44 µM)	≤ 0.025	0.2 (≈ 0.359 µM)	≤ 0.025	≤ 0.025	–	–	–	–	–	–
C[N+]1(C/C=C/C2=C(C(=O)[O-])N3C(=O)[C@@H](NC(=O)/C(=N\OCF)c4nsc(N)n4)[C@H]3SC2)CCCN(C(N)=O)CC1 (stereo partly drawn) [Example 94]	≤ 0.025	0.8 (≈ 1.34 µM)	≤ 0.025	0.2 (≈ 0.335 µM)	≤ 0.025	≤ 0.025	–	–	–	–	–	–
C[N+](C)(C/C=C/C1=C(C(=O)[O-])N2C(=O)[C@@H](NC(=O)/C(=N\OCF)c3nsc(N)n3)[C@H]2SC1)C(CO)CO [Example 95]	≤ 0.025	0.8 (≈ 1.43 µM)	≤ 0.025	0.2 (≈ 0.357 µM)	≤ 0.025	0.05 (≈ 0.0893 µM)	–	–	–	–	–	–
CNC(=O)CC[N+](C)(C)C/C=C/C1=C(C(=O)[O-])N2C(=O)[C@@H](NC(=O)/C(=N\OCF)c3nsc(N)n3)[C@H]2SC1 [Example 97]	≤ 0.025	0.8 (≈ 1.4 µM)	≤ 0.025	0.2 (≈ 0.35 µM)	≤ 0.025	≤ 0.025	–	–	–	–	–	–
CN(C)C(=O)CC[N+](C)(C)C/C=C/C1=C(C(=O)[O-])N2C(=O)[C@@H](NC(=O)/C(=N\OCF)c3nsc(N)n3)[C@H]2SC1 [Example 98]	0.05 (≈ 0.0855 µM)	3.13 (≈ 5.35 µM)	0.05 (≈ 0.0855 µM)	0.4 (≈ 0.684 µM)	≤ 0.025	0.05 (≈ 0.0855 µM)	–	–	–	–	–	–
COCC[N+](C)(C)C/C=C/C1=C(C(=O)[O-])N2C(=O)[C@@H](NC(=O)/C(=N\OCF)c3nsc(N)n3)[C@H]2SC1 [Example 99]	≤ 0.025	1.56 (≈ 2.87 µM)	≤ 0.025	0.2 (≈ 0.368 µM)	≤ 0.025	≤ 0.025	–	–	–	–	–	–
NC(=O)N1CCC[N+](C/C=C/C2=C(C(=O)[O-])N3C(=O)[C@@H](NC(=O)/C(=N\OCF)c4nsc(N)n4)[C@H]3SC2)(CCO)CC1 (stereo partly drawn) [Example 101]	≤ 0.025	1.56 (≈ 2.49 µM)	≤ 0.025	0.2 (≈ 0.319 µM)	≤ 0.025	0.05 (≈ 0.0797 µM)	–	–	–	–	–	–

Other lines, results leading:

MIC (Kleb. pneumoniae EK-6; [2]) [mg/L]	MIC (Pseud. aeruginosa EP-01; [3]) [mg/L]	MIC (Ser. marcescens ES-75; [4]) [mg/L]	MIC (Staph. aureus 209-P; [5]) [mg/L]	MIC [1, 6] [mg/L]	MIC (Escher. coli NIHJ; [7]) [mg/L]	MIC (Kleb. pneumoniae EK-6) [mg/L]	MIC (Pseud. aeruginosa EP-01) [mg/L]	MIC (Ser. marcescens ES-75) [mg/L]	MIC (Staph. aureus 209-P) [mg/L]	MIC ([1]; 18 hours) [mg/L]	MIC (Escher. coli NIHJ) [mg/L]	Compound
≤ 0.025	0.8 (≈ 1.4 µM)	≤ 0.025	0.2 (≈ 0.35 µM)	≤ 0.025	≤ 0.025	–	–	–	–	–	–	C[N+]1(CC=CC2=C(C(=O)[O-])N3C(=O)C(NC(=O)C(=NOCF)c4nsc(N)n4)C3SC2)CC(O)CC1CO (stereo not drawn) [Example 89-1]
≤ 0.025	0.8 (≈ 1.44 µM)	≤ 0.025	0.2 (≈ 0.36 µM)	0.05 (≈ 0.09 µM)	0.05 (≈ 0.09 µM)	–	–	–	–	–	–	C[N+]1(C/C=C/C2=C(C(=O)[O-])N3C(=O)[C@@H](NC(=O)/C(=N\OCF)c4nsc(N)n4)[C@H]3SC2)CCC(O)CC1 (stereo partly drawn) [Example 90]
≤ 0.025	1.56 (≈ 2.66 µM)	≤ 0.025	0.2 (≈ 0.342 µM)	≤ 0.025	0.05 (≈ 0.0854 µM)	–	–	–	–	–	–	Nc1nc(/C(=N/OCF)C(=O)N[C@@H]2C(=O)N3C(C(=O)[O-])=C(/C=C/C[N+]4(CCO)CCC(O)CC4)CS[C@H]23)ns1 (stereo partly drawn) [Example 91]
≤ 0.025	0.8 (≈ 1.4 µM)	≤ 0.025	0.2 (≈ 0.349 µM)	≤ 0.025	≤ 0.025	–	–	–	–	–	–	C[N+](C)(C/C=C/C1=C(C(=O)[O-])N2C(=O)[C@@H](NC(=O)/C(=N\OCF)c3nsc(N)n3)[C@H]2SC1)CC(=O)NCO [Example 92]
